Legend:
Type in all cases: cell-based
Settings in all cases: 50 ul saturated solution in 1 ml of cell media, in vitro
[1] = test system: Lncap, prostate cancer cells; test: Cancer cell proliferation assay, Lncap
Method: (§1) […] For comparison purposes, the effects of two anticancer drugs, cisplatin and paclitaxel, on the growth of the three types of cancel cells were also determined in vitro.

[2] = test system: SW 480, colorectal cancer cells; test: Cancer cell proliferation assay, SW 480
Method: as §1

HTB 72, melanoma cells = test: Cancer cell proliferation assay, HTB 72
Method: as §1

Row | Structure (SMILES) | Inhibition, % Lncap [1] [%] | Inhibition, % SW 480 [2] [%] | Inhibition, % HTB 72 (HTB 72, melanoma cells) [%]
1 | CC(=O)O[C@H]1C(=O)[C@@]2(C)[C@H]([C@H](OC(=O)c3ccccc3)[C@]3(O)C[C@H](OC(=O)[C@H](O)[C@@H](NC(=O)c4ccccc4)c4ccccc4)C(C)=C1C3(C)C)[C@]1(OC(C)=O)CO[C@@H]1C[C@@H]2O [Paclitaxel, paclitaxel] | 57.98 | 0.0 | 22.61
2 | N.N.[Cl][Pt][Cl] [Cisplatin, cisplatin] | 94.91 | 78.25 | 93.78
